Structures can show the parent of a compound that is named as a salt.
Legend:
Type in all cases: biochemical
rat plasma DPP-IV = target: T1, rat plasma DPP-IV (Rattus norvegicus, UniProt P14740); assay: Inhibition of DPP-IV activity in rat plasma; settings: substrate H-Glycine-Proline-AMC, pH 7.8, room temperature, 20 min
T1 construct: DPP-IV activity in human and rat plasma; from tissue; host or cells: rat plasma
Protocol: (§1) 192-197 (1992). Briefly, five […] are added to 96-well flat-bottom mictotiter plates (Falcon), followed by the addition of 5 mL of 80 mM MgCl2 in incubation buffer (25 mM HEPES, 140 mM NaCl, 1% RIA-grade BSA, pH 7.8). After a 5 min. incubation at room temperature, the reaction is initiated by the addition of 10 mL of incubation buffer containing 0.1 mM substrate (H-Glycine-Proline-AMC; AMC is 7-amino-4-methylcoumarin). The plates are covered with aluminum foil (or kept in the dark,) and incubated at room temperature for 20 min. After the 20 min. reaction, fluorescence is measured using a CytoFluor 2350 fluorimeter (Excitation 380 nm Emission 460 nm; sensitivity setting 4). Test compounds are typically added as 2 mL additions and the assay buffer volume is reduced to 13 mL. A fluorescence-concentration curve of free AMC is generated using […] solutions of AMC in assay buffer. The curve generated is linear and is used for interpolation of substrate consumption (catalytic activity in nmoles substrate cleaved/min). As with the previous assay, the potency of the test compounds as DPP-IV inhibitors, expressed as IC50, is calculated from 8-point, dose-response curves using a 4 parameter logistic function.

DPP-IV = target: T2, DPP-IV (Homo sapiens, UniProt P27487); assay: Caco-2 DPP-IV Assay (inhibition of DPP-IV activity from human colonic carcinoma cell extracts); settings: Caco-2 cell extract; substrate H-Alanine-Proline-pNA; pH 7.4; room temperature, 10 minutes
T2 construct: DPP-IV activity from human colonic carcinoma cell extracts; endogenous in cells; host or cells: Caco-2 (ATCC HTB 37), differentiated to induce DPP-IV expression; nonidet-P40 extract
Excerpt: As indicated above, all of the compounds of formula I, and their corresponding pharmaceutically acceptable acid addition salts, are useful in inhibiting DPP-IV. […] The human colonic carcinoma cell line Caco-2 was obtained from the American Type Culture Collection (ATCC HTB 37). Differentiation of the cells to induce DPP-IV expression was accomplished as described by Reisher, et al. in an article entitled "Increased expression of . . . intestinal cell line Caco-2" in Proc. Natl. Acad. Sci., Vol. 90, pgs. 5757-5761 (1993). Cell extract is prepared from cells solubilized in 10 mM Tris-HCl, 0.15 M NaCl, 0.04 t.i.u. aprotinin, 0.5% nonidet-P40, pH 8.0, which is centrifuged at 35,000 g for 30 min. at 4° C. to remove cell debris. The assay is conducted by adding […] solubilized Caco-2 protein, diluted to a final volume of 125 mL in assay buffer (25 mM Tris-HCl pH 7.4, 140 mM NaCl, 10 mM KCl, 1% bovine serum albumin) to microtiter plate wells. The reaction is initiated by adding 25 mL of 1 mM substrate (H-Alanine-Proline-pNA; pNA is p-nitroaniline). The reaction is run at room temperature for 10 minutes after which time a 19 mL volume of 25% glacial acetic acid is added to stop the reaction. Test compounds are typically added as 30 mL additions and the assay buffer volume is reduced to 95 mL. A standard curve of free p-nitroaniline is generated using […] solutions of free pNA in assay buffer. The curve generated is linear and is used for interpolation of substrate consumption (catalytic activity in nmoles substrate cleaved/min). The endpoint is determined by measuring absorbance at 405 nm in a Molecular Devices UV Max microtiter plate reader. The potency of the test compounds as DPP-IV inhibitors, expressed as IC50, is calculated from 8-point, dose-response curves using a 4-parameter logistic function.

human plasma DPP-IV = target: T3, human plasma DPP-IV (Homo sapiens, UniProt P27487); assay: Inhibition of DPP-IV activity in human plasma; settings: substrate H-Glycine-Proline-AMC, pH 7.8, room temperature, 20 min
T3 construct: DPP-IV activity in human and rat plasma; from tissue; host or cells: human plasma
Protocol: as §1

T1 sequence (P14740 37-767 limits assumed): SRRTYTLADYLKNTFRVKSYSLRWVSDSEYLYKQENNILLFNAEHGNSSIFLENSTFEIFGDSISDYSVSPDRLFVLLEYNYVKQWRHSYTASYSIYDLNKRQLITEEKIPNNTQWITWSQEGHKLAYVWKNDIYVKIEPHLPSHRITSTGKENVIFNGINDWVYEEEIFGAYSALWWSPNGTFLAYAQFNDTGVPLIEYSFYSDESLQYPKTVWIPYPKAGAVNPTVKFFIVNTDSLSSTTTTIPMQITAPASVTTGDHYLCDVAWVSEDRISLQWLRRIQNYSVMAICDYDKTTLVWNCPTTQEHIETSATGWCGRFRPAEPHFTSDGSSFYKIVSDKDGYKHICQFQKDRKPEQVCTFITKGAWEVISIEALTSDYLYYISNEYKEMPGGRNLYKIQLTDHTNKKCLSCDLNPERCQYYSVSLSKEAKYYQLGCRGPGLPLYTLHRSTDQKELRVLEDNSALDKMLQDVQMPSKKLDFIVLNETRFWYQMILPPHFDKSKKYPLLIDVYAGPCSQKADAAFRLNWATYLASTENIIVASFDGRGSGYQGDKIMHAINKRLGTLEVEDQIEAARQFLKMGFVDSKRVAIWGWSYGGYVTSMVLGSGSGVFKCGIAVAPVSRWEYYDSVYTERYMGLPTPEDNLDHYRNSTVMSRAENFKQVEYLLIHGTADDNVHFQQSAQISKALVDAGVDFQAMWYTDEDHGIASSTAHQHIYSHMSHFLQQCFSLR
T2 sequence (P27487 whole entry): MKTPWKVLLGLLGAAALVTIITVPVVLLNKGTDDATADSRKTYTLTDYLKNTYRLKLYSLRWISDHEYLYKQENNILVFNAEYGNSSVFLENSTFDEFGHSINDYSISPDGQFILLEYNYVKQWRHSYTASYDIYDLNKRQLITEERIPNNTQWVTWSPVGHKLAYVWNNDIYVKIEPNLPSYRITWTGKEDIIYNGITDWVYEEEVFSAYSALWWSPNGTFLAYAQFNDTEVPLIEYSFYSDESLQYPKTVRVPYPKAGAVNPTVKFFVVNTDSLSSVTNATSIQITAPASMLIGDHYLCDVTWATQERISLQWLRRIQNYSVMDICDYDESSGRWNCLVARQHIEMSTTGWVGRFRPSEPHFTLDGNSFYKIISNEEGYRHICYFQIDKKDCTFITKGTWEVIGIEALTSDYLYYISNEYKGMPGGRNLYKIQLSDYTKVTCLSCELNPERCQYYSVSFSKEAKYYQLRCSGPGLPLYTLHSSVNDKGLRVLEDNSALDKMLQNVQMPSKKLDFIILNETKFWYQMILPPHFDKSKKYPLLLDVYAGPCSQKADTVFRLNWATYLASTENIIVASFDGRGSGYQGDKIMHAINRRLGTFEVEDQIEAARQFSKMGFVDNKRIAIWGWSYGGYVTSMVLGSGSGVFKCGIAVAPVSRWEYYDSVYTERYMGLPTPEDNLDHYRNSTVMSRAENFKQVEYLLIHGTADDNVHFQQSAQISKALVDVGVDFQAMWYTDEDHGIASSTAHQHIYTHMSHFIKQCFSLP
T3 sequence (P27487 39-766 limits assumed): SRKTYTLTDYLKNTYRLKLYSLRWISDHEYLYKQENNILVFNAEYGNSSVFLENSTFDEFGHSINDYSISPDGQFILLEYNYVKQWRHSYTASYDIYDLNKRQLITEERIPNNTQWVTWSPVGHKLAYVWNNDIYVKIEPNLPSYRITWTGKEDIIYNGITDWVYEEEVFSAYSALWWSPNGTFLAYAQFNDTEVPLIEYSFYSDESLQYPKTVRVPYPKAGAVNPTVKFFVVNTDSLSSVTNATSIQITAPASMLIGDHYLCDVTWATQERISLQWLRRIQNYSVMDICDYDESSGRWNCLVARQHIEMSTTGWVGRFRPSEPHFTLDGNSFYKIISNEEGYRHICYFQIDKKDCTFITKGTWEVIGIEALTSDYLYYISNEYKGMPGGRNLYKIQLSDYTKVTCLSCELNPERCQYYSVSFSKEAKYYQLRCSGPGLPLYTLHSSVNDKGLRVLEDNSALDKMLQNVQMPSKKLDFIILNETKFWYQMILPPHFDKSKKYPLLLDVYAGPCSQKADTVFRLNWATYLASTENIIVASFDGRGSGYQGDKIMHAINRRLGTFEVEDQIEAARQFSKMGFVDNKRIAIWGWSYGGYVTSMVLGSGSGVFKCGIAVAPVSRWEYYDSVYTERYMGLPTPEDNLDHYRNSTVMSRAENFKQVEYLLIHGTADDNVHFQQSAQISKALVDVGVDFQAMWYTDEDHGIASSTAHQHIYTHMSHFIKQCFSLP

Row | Structure (SMILES) | IC50 (rat plasma DPP-IV) [nM] | IC50 (DPP-IV) [nM] | IC50 (human plasma DPP-IV) [nM]
1 | COc1cc2c(cc1OC)CC(C(=O)N1CCC[C@H]1C#N)NC2 (single isomer, unassigned; diastereomer b) [Ex. 7, 1-[1,2,3,4-tetrahydro-6,7-dimethoxy-3-isoquinolinyl]carbonyl-2-Pyrrolidinecarbonitrile [Diastereomer B]] | 78 | 13 | 12
2 | N#C[C@@H]1CCCN1C(=O)[C@@H]1Cc2ccccc2CN1 [Ex. 1, [S-(R*,R*)]-1-(1,2,3,4-tetrahydro-3-isoquinolinyl)carbonyl-2-pyrrolidinecarbonitrile trifluoroacetate] | 790 | 7.6 | 41
3 | N#C[C@@H]1CCCN1C(=O)[C@@H]1Cc2ccc(O)cc2CN1 [Ex. 2, [S-(R*,R*)]-1-(1,2,3,4-tetrahydro-7-hydroxy-3-isoquinolinyl)carbonyl-2-Pyrrolidinecarbonitrile trifluoroacetate] |  | 4 | 
4 | COc1ccc2c(c1)CN[C@H](C(=O)N1CCC[C@H]1C#N)C2 [Ex. 3, [S-(R*,R*)]-1-(1,2,3,4-tetrahydro-7-methoxy-3-isoquinolinyl)carbonyl-2-Pyrrolidinecarbonitrile trifluoroacetate] | 16 | 14 | 4
5 | N#C[C@@H]1CCCN1C(=O)[C@@H]1Cc2ccc(OCc3ccccc3)cc2CN1 [Ex. 4, [S-(R*,R*)]-1-(1,2,3,4-tetrahydro-7-phenylmethoxy-3-isoquinolinyl)carbonyl-2-Pyrrolidinecarbonitrile trifluoroacetate] | 1300 | 9 | 167
6 | CCCOc1ccc2c(c1)CN[C@H](C(=O)N1CCC[C@H]1C#N)C2 [Ex. 5, [S-(R*,R*)]-1-(1,2,3,4-tetrahydro-7-propoxy-3-isoquinolinyl)carbonyl-2-Pyrrolidinecarbonitrile trifluoroacetate] | 315 | 8 | 49
7 | COc1cc2c(cc1OC)CC(C(=O)N1CCC[C@H]1C#N)NC2 (stereo partly drawn) [Ex. 6, [S-(R*,R*)]-1-[1,2,3,4-tetrahydro-6,7-dimethoxy-3-isoquinolinyl]carbonyl-2-Pyrrolidinecarbonitrile] |  | > 10000 | 
8 | CCN(CC)CCCOc1ccc2c(c1)CNC(C(=O)N1CCCC1C#N)C2 (stereo not drawn) [Ex. 8, [S-(R*,R*)]-1-[7-(3-diethylamino)propoxy-1,2,3,4-tetrahydro-3-isoquinolinyl]carbonyl-2-Pyrrolidinecarbonitrile] |  | 10 | 
9 | CCOCCOCCOc1ccc2c(c1)CN[C@H](C(=O)N1CCC[C@H]1C#N)C2 [Ex. 9, [S-(R*,R*)]-1-[7-[2-(2-ethoxyethoxy)ethoxy]-1,2,3,4-tetrahydro-3-isoquinolinyl]carbonyl-2-Pyrrolidinecarbonitrile trifluoroacetate] |  | 10 | 
10 | N#C[C@@H]1CCCN1C(=O)[C@@H]1Cc2ccc(OCC(N)=O)cc2CN1 [Ex. 10, [S-(R*,R*)]-[3-(2-cyano-1-pyrrolidinyl)carbonyl-1,2,3,4-tetrahydro-7-isoquinolinyl]oxy-Acetamide] | 12 | 16 | 5
11 | N#C[C@@H]1CCCN1C(=O)[C@@H]1Cc2ccc(OCC(=O)O)cc2CN1 [Ex. 11, [S-(R*,R*)]-[3-(2-cyano-1-pyrrolidinyl)carbonyl-1,2,3,4-tetrahydro-7-isoquinolinyl]oxy-Acetic acid] |  | 10 | 

From patent US6172081A, “Tetrahydroisoquinoline 3-carboxamide derivatives” (Novartis AG, priority 1999, dated 2001)
